This is an account of results in article PMC7753147, “High-throughput determination of protein affinities using unmodified peptide libraries in nanomolar scale” (iScience, 2020).

In assay [1] the test system is FL-geph. Nature of the assay: µSPOT peptide microarray binding assay with full-length geph. As to conditions: µSPOT peptide microarray, GlyRβ full positional scan, intensity normalised to wild-type sequence DLRSNDFSIVGSLPR (=1).
The subject of assay [2] is gephE. Nature of the assay: µSPOT peptide microarray binding assay with recombinant gephE. As to conditions: µSPOT peptide microarray, GlyRβ full positional scan, recombinant gephE; intensity normalised to wild-type sequence DLRSNDFSIVGSLPR (=1).
Assay [3] concerns native geph. Nature of the assay: µSPOT peptide microarray binding assay with native geph from mouse brain lysate. As to conditions: µSPOT peptide microarray, GlyRβ full positional scan, native geph from mouse brain lysate; intensity normalised to wild-type sequence DLRSNDFSIVGSLPR (=1).
Procedure: Preparation of Mouse Tissue Lysates
Whole mouse brains were obtained from C57BL/6J mice at >4 weeks of age and 80 immediately flash frozen in liquid N2. Tissue of mRFP-gephyrin knock-in animals of 1 year of age (provided by Christian Specht, IBENS, Paris) was processed the same way. Before lysis, whole mouse brains were weighted and cut into four pieces along the coronal and sagittal axis. For preparation of one lysate, two diagonally opposite pieces were transferred into a 1.5 mL reaction tube (Sarsted). Lysis was carried out on ice in 400 µL RIPA lysis buffer (150 mM 85 NaCl, 50 mM Tris-HCl (pH=8), 1% Nonident P-40 substitute, 0.5% DOC, 0.1% SDS (all v/v)), to which Ethylenediaminetetraacetic acid (5 mM end concentration) and 1 mini tablet of ROCHE complete protease inhibitor per 10 mL was added immediately before use, by hand crushing the brain material with a hand pestle in a 1.5 mL reaction tube. Lysis was completed by 1 min sonification on ice with a Sartorius Labsonic M Sonificator at 20% amplitude with 90 care to avoid heating the suspensions. Finally, Lysates were centrifuged for 15 min at 17,200×g and 4 °C. The SN was subsequently collected, transferred to a new 1.5 mL reaction tube, flash frozen in liquid N2 and stored at -80 °C until use.
95 µSPOT slides were blocked by incubation with 2.5 mL 2% (w/v) IGG free bovine serum

In the case of “DLRGNDFSIVGSLPR [GlyRβ_Full_Positional_Scan_062]”, the “Fl-geph Binding Intensity [norm.]” value in assay [1] turned out to be 0.88 norm. In addition, the “gephE Binding Intensity [norm.]” value in assay [2] came to 0.99 norm. The “Native geph Binding Intensity [norm.]” value in assay [3] is recorded as 1.16 norm.
The matching figures for “DLRHNDFSIVGSLPR [GlyRβ_Full_Positional_Scan_073]”: 0.84 norm, 0.92 norm and 0.86 norm.
On the same counts, the results for “DLRINDFSIVGSLPR [GlyRβ_Full_Positional_Scan_063]” are 0.91 norm, 0.92 norm and 1.05 norm.
The matching figures for “DLRKNDFSIVGSLPR [GlyRβ_Full_Positional_Scan_074]”: 0.94 norm, 0.92 norm and 1.05 norm.
Consider “DLRLNDFSIVGSLPR [GlyRβ_Full_Positional_Scan_064]”, for which, in assay [1], the “Fl-geph Binding Intensity [norm.]” value came out at 0.89 norm. Moreover, the “gephE Binding Intensity [norm.]” value in assay [2] is 0.9 norm. For the same sequence, the “Native geph Binding Intensity [norm.]” value in assay [3] is given as 0.88 norm.
On the same counts, the results for “DLRMNDFSIVGSLPR [GlyRβ_Full_Positional_Scan_078]” are 1.08 norm, 1.02 norm and 1.07 norm.
As for “DLRNNDFSIVGSLPR [GlyRβ_Full_Positional_Scan_079]”, the “Fl-geph Binding Intensity [norm.]” value in assay [1] amounted to 0.99 norm. Further, the “gephE Binding Intensity [norm.]” value in assay [2] was 0.92 norm. The “Native geph Binding Intensity [norm.]” value in assay [3] is 0.88 norm.
Regarding “DLRPNDFSIVGSLPR [GlyRβ_Full_Positional_Scan_065]”, the “Fl-geph Binding Intensity [norm.]” value in assay [1] came out at 0.64 norm. Further, the “gephE Binding Intensity [norm.]” value in assay [2] is reported as 0.89 norm. Moreover, the “Native geph Binding Intensity [norm.]” value in assay [3] amounted to 0.71 norm.
For the sequence “DLRQNDFSIVGSLPR [GlyRβ_Full_Positional_Scan_080]”, the “Fl-geph Binding Intensity [norm.]” value in assay [1] stood at 0.98 norm. For the same sequence, the “gephE Binding Intensity [norm.]” value in assay [2] came out at 0.89 norm. In assay [3], the “Native geph Binding Intensity [norm.]” value is recorded as 1.04 norm.
The matching figures for “DLRRNDFSIVGSLPR [GlyRβ_Full_Positional_Scan_072]”: 1.06 norm, 0.97 norm and 1.25 norm.
“DLRSADFSIVGSLPR [GlyRβ_Full_Positional_Scan_081]”: the “Fl-geph Binding Intensity [norm.]” value in assay [1] worked out at 0.9 norm. The “gephE Binding Intensity [norm.]” value in assay [2] came to 0.93 norm. Besides, the “Native geph Binding Intensity [norm.]” value in assay [3] came to 0.76 norm.
On the same counts, the results for “DLRSCDFSIVGSLPR [GlyRβ_Full_Positional_Scan_097]” are 0.76 norm, 0.99 norm and 0.83 norm.
On to “DLRSDDFSIVGSLPR [GlyRβ_Full_Positional_Scan_090]”, for which, in assay [1], the “Fl-geph Binding Intensity [norm.]” value was found to be 0.94 norm. Further, in assay [2], the “gephE Binding Intensity [norm.]” value turned out to be 0.96 norm. In addition, the “Native geph Binding Intensity [norm.]” value in assay [3] is recorded as 0.98 norm.
Consider “DLRSEDFSIVGSLPR [GlyRβ_Full_Positional_Scan_091]”, for which the “Fl-geph Binding Intensity [norm.]” value in assay [1] was determined as 1 norm. Moreover, in assay [2], the “gephE Binding Intensity [norm.]” value amounted to 0.96 norm. The “Native geph Binding Intensity [norm.]” value in assay [3] stood at 0.96 norm.
On to “DLRSFDFSIVGSLPR [GlyRβ_Full_Positional_Scan_087]”, for which the “Fl-geph Binding Intensity [norm.]” value in assay [1] was 0.75 norm. In addition, in assay [2], the “gephE Binding Intensity [norm.]” value worked out at 0.9 norm. For the same sequence, in assay [3], the “Native geph Binding Intensity [norm.]” value stood at 0.55 norm.
With “DLRSGDFSIVGSLPR [GlyRβ_Full_Positional_Scan_082]”, in assay [1], the “Fl-geph Binding Intensity [norm.]” value turned out to be 0.9 norm. Further, in assay [2], the “gephE Binding Intensity [norm.]” value is listed as 0.9 norm. Moreover, the “Native geph Binding Intensity [norm.]” value in assay [3] is recorded as 0.77 norm.
On to “DLRSHDFSIVGSLPR [GlyRβ_Full_Positional_Scan_093]”, for which the “Fl-geph Binding Intensity [norm.]” value in assay [1] was found to be 0.75 norm. Moreover, in assay [2], the “gephE Binding Intensity [norm.]” value came out at 0.9 norm. The “Native geph Binding Intensity [norm.]” value in assay [3] is 0.72 norm.
For the sequence “DLRSIDFSIVGSLPR [GlyRβ_Full_Positional_Scan_083]”, the “Fl-geph Binding Intensity [norm.]” value in assay [1] is on record as 0.81 norm. Also, the “gephE Binding Intensity [norm.]” value in assay [2] is reported as 0.92 norm. The “Native geph Binding Intensity [norm.]” value in assay [3] came to 0.55 norm.
For “DLRSKDFSIVGSLPR [GlyRβ_Full_Positional_Scan_094]”, in assay [1], the “Fl-geph Binding Intensity [norm.]” value was 0.79 norm. For the same sequence, the “gephE Binding Intensity [norm.]” value in assay [2] is on record as 0.92 norm. Besides, the “Native geph Binding Intensity [norm.]” value in assay [3] is 0.66 norm.
The matching figures for “DLRSLDFSIVGSLPR [GlyRβ_Full_Positional_Scan_084]”: 0.86 norm, 0.92 norm and 0.69 norm.
The matching figures for “DLRSMDFSIVGSLPR [GlyRβ_Full_Positional_Scan_098]”: 0.85 norm, 0.92 norm and 0.91 norm.
The matching figures for “DLRSNAFSIVGSLPR [GlyRβ_Full_Positional_Scan_101]”: 1.04 norm, 0.98 norm and 0.77 norm.
With “DLRSNCFSIVGSLPR [GlyRβ_Full_Positional_Scan_117]”, in assay [1], the “Fl-geph Binding Intensity [norm.]” value was determined as 0.8 norm. Moreover, in assay [2], the “gephE Binding Intensity [norm.]” value is given as 0.81 norm. Further, the “Native geph Binding Intensity [norm.]” value in assay [3] is given as 0.64 norm.
On the same counts, the results for “DLRSNDASIVGSLPR [GlyRβ_Full_Positional_Scan_121, GlyR β 414-428 variant F420A]” are 0.53 norm, 0.48 norm and 0.32 norm.
On the same counts, the results for “DLRSNDCSIVGSLPR [GlyRβ_Full_Positional_Scan_137, GlyR β 414-428 variant F420C]” are 0.63 norm, 0.67 norm and 0.53 norm.
The matching figures for “DLRSNDDSIVGSLPR [GlyRβ_Full_Positional_Scan_130, GlyR β 414-428 variant F420D]”: 0.38 norm, 0.45 norm and 0.26 norm.
On to “DLRSNDESIVGSLPR [GlyRβ_Full_Positional_Scan_131, GlyR β 414-428 variant F420E]”, for which the “Fl-geph Binding Intensity [norm.]” value in assay [1] is recorded as 0.32 norm. In addition, in assay [2], the “gephE Binding Intensity [norm.]” value was 0.42 norm. Further, the “Native geph Binding Intensity [norm.]” value in assay [3] was 0.2 norm.
The matching figures for “DLRSNDFAIVGSLPR [GlyRβ_Full_Positional_Scan_141, GlyR β 414-428 variant S421A]”: 0.79 norm, 0.55 norm and 0.35 norm.
The matching figures for “DLRSNDFCIVGSLPR [GlyRβ_Full_Positional_Scan_157, GlyR β 414-428 variant S421C]”: 0.71 norm, 0.66 norm and 0.36 norm.
The matching figures for “DLRSNDFDIVGSLPR [GlyRβ_Full_Positional_Scan_150, GlyR β 414-428 variant S421D]”: 0.9 norm, 0.53 norm and 0.29 norm.
With “DLRSNDFEIVGSLPR [GlyRβ_Full_Positional_Scan_151, GlyR β 414-428 variant S421E]”, in assay [1], the “Fl-geph Binding Intensity [norm.]” value is given as 0.79 norm. In assay [2], the “gephE Binding Intensity [norm.]” value is given as 0.47 norm. Also, the “Native geph Binding Intensity [norm.]” value in assay [3] is recorded as 0.2 norm.
The matching figures for “DLRSNDFFIVGSLPR [GlyRβ_Full_Positional_Scan_147, GlyR β 414-428 variant S421F]”: 0.64 norm, 0.53 norm and 0.18 norm.
“DLRSNDFHIVGSLPR [GlyRβ_Full_Positional_Scan_153, GlyR β 414-428 variant S421H]”: the “Fl-geph Binding Intensity [norm.]” value in assay [1] is on record as 0.95 norm. The “gephE Binding Intensity [norm.]” value in assay [2] came out at 0.8 norm. Further, the “Native geph Binding Intensity [norm.]” value in assay [3] amounted to 0.48 norm.
The matching figures for “DLRSNDFIIVGSLPR [GlyRβ_Full_Positional_Scan_143, GlyR β 414-428 variant S421I]”: 0.41 norm, 0.4 norm and 0.18 norm.
On the same counts, the results for “DLRSNDFKIVGSLPR [GlyRβ_Full_Positional_Scan_154, GlyR β 414-428 variant S421K]” are 0.92 norm, 0.65 norm and 0.24 norm.
The matching figures for “DLRSNDFLIVGSLPR [GlyRβ_Full_Positional_Scan_144, GlyR β 414-428 variant S421L]”: 0.54 norm, 0.6 norm and 0.2 norm.
On to “DLRSNDFMIVGSLPR [GlyRβ_Full_Positional_Scan_158, GlyR β 414-428 variant S421M]”, for which the “Fl-geph Binding Intensity [norm.]” value in assay [1] is given as 0.88 norm. In addition, in assay [2], the “gephE Binding Intensity [norm.]” value amounted to 0.73 norm. Moreover, in assay [3], the “Native geph Binding Intensity [norm.]” value stood at 0.54 norm.
